Where “and” joins values, the source holds several entries; their conditions need not be identical. Equal values may be shown once. Calls of active or inactive are those of the source.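 The calls were made as follows: active = signal-decreasing dose-response curve whose fitted half-maximal concentration is at or below twice the highest valid tested dose; inconclusive = flat fit at 30 to 70% signal loss, or poor fit; inactive = the rest.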

The nature of the test: cell viability loss after compound exposure – 24 h, luminescence, cherry-picked samples, cytotoxicity control for PDI inhibitor project, dose response (AID 624285). As to conditions: NIH3T3/HeLa viability, CellTiter-Glo ATP luminescence, 24 h; at 35 µM (top of the series). For orientation: In ATP-based viability assays light output follows the ATP content of the culture.
Turning to `Cc1ccc(S(=O)(=O)N2CCC(C(=O)Nc3ccc(S(=O)(=O)N4CCCC4)cc3)CC2)cc1`, the activity change, negative = cytotoxicity was -22.6% (inactive).
In the case of `COc1ccc(/C(C)=N/NC(=O)CNC(=O)c2cccs2)cc1` it was -6.13% (inactive).
Then `COC(=O)C(Cc1ccc(O)cc1)N1Cc2ccccc2C1=O` (stereo not given), with -9.13% (inactive); and `Cc1noc(C)c1S(=O)(=O)Nc1ccc2c(c1)CC(=O)N([C@H](C)CO)C[C@H](C)[C@H](CN(C)S(C)(=O)=O)O2`, with 1.83% (inactive).
For `Cc1nnc(N/N=C/c2ccc(-c3ccccc3F)o2)n1N`, the activity change, negative = cytotoxicity was -8.41% (inactive).
Then `CCOc1ccc(NC(=O)CCc2nnc3ccc(N4CCN(C)CC4)nn23)cc1`, with -6.93% (inactive); and `Cc1nc(C(=O)Nc2cccc(Cl)c2Cl)nn1-c1cc(OC(C)C)c(Cl)cc1Cl`, with -11.1% (inactive).
In the case of `Cc1noc(C)c1S(=O)(=O)Nc1ccc2c(c1)CC(=O)N([C@@H](C)CO)C[C@H](C)[C@@H](CN(C)S(=O)(=O)c1ccc(F)cc1)O2` it was 2.55% (inactive).
Take `COc1cc(-c2oc3cc(O)cc(O)c3c(=O)c2O[C@@H]2O[C@H](COC3O[C@@H](C)[C@H](O)[C@@H](O)[C@H]3O)[C@@H](O)[C@H](O)[C@H]2O)ccc1O` (stereo not given in full): the activity change, negative = cytotoxicity was -2.55% (inactive).
Then `C[C@@H]1CN([C@H](C)CO)C(=O)c2cc(NC(=O)Cc3cn(C)c4ccccc34)ccc2O[C@@H]1CN(C)S(=O)(=O)c1ccc(F)cc1`, with -8.29% (inactive); and `Cc1ccc(-c2cc(C(=O)NNC(=O)c3csc(N4CCOCC4)n3)c3ccccc3n2)cc1`, with -13.2% (inactive).
In the case of `O=C(/C=C/c1ccccc1)Nc1scc(-c2ccccc2)c1C(=O)O` it was -11.6% (inactive); in that of `CCC(=O)N1CCc2cc(S(=O)(=O)CCC(=O)NCc3ccco3)ccc21`, -2.4% (inactive).
With `O=C(CN1CCN(c2ccc(O)cc2)CC1)Nc1cc(S(=O)(=O)N2CCOCC2)ccc1Cl`, the activity change, negative = cytotoxicity was -13.3% (inactive).
Then `C[C@@H]1O[C@@H](Oc2c(-c3ccc(O)c(O)c3)oc3cc(O)cc(O)c3c2=O)[C@H](O)[C@H](O)[C@H]1O`, with -1.28% (inactive) and -10.2% (inactive); and `Cn1c(=O)n(CCCOc2ccc(Br)cc2)c2ccccc21`, with -15.3% (inactive).
For the compound `O=C1CCC(=O)N1c1nc2nc(-c3ccccc3)cc(-c3ccccc3)n2n1`, the activity change, negative = cytotoxicity is -9.12% (inactive).
As for `Cc1nn(CC(=O)NCC2CCCO2)c(C)c1[N+](=O)[O-]` (stereo not given), the activity change, negative = cytotoxicity is -7.91% (inactive).
In the case of `NC1=NC[C@H](Cc2ccc(O)cc2)N1CC1CCCCC1` it was -11.8% (inactive).
In the case of `COc1ccc2c(CC(=O)OCC(=O)N(C)c3c(N)n(Cc4ccccc4)c(=O)[nH]c3=O)coc2c1` it was -8.77% (inactive); in that of `Cc1cccc(C)c1NC(=O)CN1CCNCC1`, -9.95% (inactive); in that of `COc1ccc(OC)c2[nH]c(=O)c(CCNC(=O)C(=O)c3c(C)[nH]c4ccccc34)cc12`, -1.3% (inactive).
In the case of `CCOC(=O)c1c(CN2CCN(Cc3ccccc3)CC2)n(C)c2cc(Br)c(OC)cc12` it was -17.4% (inactive); in that of `N#Cc1c(NCCCO)nc(-c2ccco2)c2c1CCCC2`, -19.8% (inactive); in that of `CCS(=O)(=O)c1ccc2oc(SCC(=O)NC(C)C3CC4CCC3C4)nc2c1` (stereo not given), -13.9% (inactive).
`COc1ccc(CCNC(=O)c2cc(S(=O)(=O)N(C)C)ccc2N2CCCC2)cc1`: the activity change, negative = cytotoxicity is -14.6% (inactive).
In the case of `CCN(CC(=O)Nc1ccc2c(c1)OCCO2)C(=O)CC1CCCC1` it was -11.8% (inactive); in that of `COc1ccc(S(=O)(=O)NC(C)C(=O)Nc2ccccc2F)cc1` (stereo not given), -4.66% (inactive); in that of `C[C@H](CO)N1C[C@H](C)[C@H](CN(C)Cc2ccccc2)Oc2ccc(NC(=O)Nc3ccccc3)cc2CC1=O`, -11.2% (inactive).
`CN(C)C(=O)CSc1nnc([C@H](Cc2c[nH]c3ccccc23)NC(=O)OC(C)(C)C)o1`: the activity change, negative = cytotoxicity is -2.37% (inactive).
`C[C@@H]1CN([C@H](C)CO)C(=O)c2cc(NC(=O)Cc3cn(C)c4ccccc34)ccc2O[C@H]1CN(C)S(=O)(=O)c1ccc(F)cc1`: the activity change, negative = cytotoxicity was -11.7% (inactive) and -2.14% (inactive).
Then `Cn1cc(Cl)c(C(=O)OCC(=O)Nc2ccccc2)n1`, with -7.99% (inactive); and `O=C1C[C@@H](c2ccc(O[C@@H]3O[C@H](CO)[C@@H](O)[C@H](O)[C@H]3O)cc2)Oc2cc(O)ccc21`, with -5.71% (inactive); and `CC1Cc2ccccc2N1C(=O)CSc1nnc2sc3ccccc3n12` (stereo not given), with -7.39% (inactive).
As to `COc1cccc(-n2ccnc2SCC(=O)Nc2cc(OC)ccc2OC)c1`, the activity change, negative = cytotoxicity was -15.9% (inactive).
For `Cc1c(O)ccc2c(CN3CCN(CCO)CC3)cc(=O)oc12`, the activity change, negative = cytotoxicity was -7.06% (inactive).
For `Cc1cc(C)c2c(=O)n3c(nc2c1)C(Cc1ccc(O)cc1)NC(=O)c1cccnc1-3` (stereo not given), the activity change, negative = cytotoxicity is -10.3% (inactive).
In the case of `CC(OC(=O)c1cccc(S(=O)(=O)N(C)C)c1)C(=O)NCC(=O)Nc1ccc(F)c(F)c1F` (stereo not given) it was -4.24% (inactive).
Regarding `O=C(Nc1ccccc1)c1cc(C2CCCCN2C(=O)c2ccccc2)on1` (stereo not given), the activity change, negative = cytotoxicity is -15.5% (inactive).
In the case of `CCOC(C(=O)OCCCN(CC)CC)(c1ccccc1)c1ccccc1` it was -17.8% (inactive); in that of `Cc1ccc(NC(=O)NC(=O)CN2CCC(C(N)=O)CC2)c(C)c1`, -4.84% (inactive); in that of `O=c1c(OC2OC(CO)C(O)C(O)C2O)c(-c2ccc(O)c(O)c2)oc2cc(O)cc(O)c12` (stereo not given), -0.384% (inactive).
Then `O=c1c(O[C@H]2O[C@@H](CO)[C@H](O)[C@@H](O)[C@@H]2O)c(-c2ccc(O)cc2)oc2cc(O)cc(O)c12`, with -3.13% (inactive); and `CCOC(=O)c1c(-c2ccccc2)oc2cc(Br)c(O)cc12`, with -20.5% (inactive).
In the case of `C[C@@H]1O[C@@H](OC[C@H]2O[C@@H](Oc3c(-c4ccc(O)c(O)c4)oc4cc(O)cc(O)c4c3=O)[C@H](O)[C@@H](O)[C@@H]2O)[C@H](O)[C@H](O)[C@H]1O` it was -2.56% (inactive); in that of `CC1CC(C)CN(C(=O)COC(=O)c2ccc[nH]c2=O)C1` (stereo not given), -4.68% (inactive); in that of `CCCCN(C(=O)C1=CC=CN2CCS(=O)(=O)N=C12)c1ccccc1`, -2.89% (inactive).
As for `CN(C)S(=O)(=O)c1ccc(Cl)c(NC(=O)CSc2nnnn2-c2ccc(O)cc2)c1`, the activity change, negative = cytotoxicity is -11.7% (inactive).
Then `Cc1cc(Cl)ccc1OCc1n[nH]c(=S)n1C1CCCCC1`, with -11% (inactive).
Then `Cc1ccc2nc(N3CCN(Cc4nnnn4C4CCCC4)CC3)c(C#N)cc2c1`, with -9.95% (inactive); and `Clc1cccc(OCCCN2CCCC2)c1Cl`, with -17% (inactive).
In the case of `O=c1cc(CSc2nnnn2-c2ccc(O)cc2)nc2sccn12` it was -22.1% (inactive); in that of `CCCCn1c(N)c(N(CC(C)C)C(=O)c2cc(-c3ccncc3)nc3ccccc23)c(=O)[nH]c1=O`, -9.75% (inactive).
Consider `O=C(N/N=C/c1ccc(O)cc1)NC12CC3CC(CC(C3)C1)C2`, for which the activity change, negative = cytotoxicity was -14.1% (inactive).
In the case of `CCOc1ccc(NC(=O)CN(C)C(=O)c2cc(C)nc3ccccc23)cc1OCC` it was -13.4% (inactive); in that of `O=S(=O)(c1ccccc1)N1N=C(c2ccc(O)cc2)CC1c1ccco1` (stereo not given), -18% (inactive).
On to `CCOC(=O)CN(c1ccccc1)S(=O)(=O)c1ccc(F)cc1`, for which the activity change, negative = cytotoxicity was -10.3% (inactive).
For the compound `O=C(NC1CCCCC1)C1CCN(S(=O)(=O)c2cccs2)CC1`, the activity change, negative = cytotoxicity was -7.67% (inactive).
Then `O=S(=O)(c1cc(F)ccc1F)N1CCN(c2ncccn2)CC1`, with -15.2% (inactive).
For `COCC(=O)N(C)C1(c2nnnn2CCOC(=O)Nc2ccc(Cl)cc2)CCCC1`, the activity change, negative = cytotoxicity is -5.83% (inactive).
As to `CCOC(=O)c1ccc(NC(=O)C2(c3ccc(Cl)cc3)CCCC2)cc1`, the activity change, negative = cytotoxicity is -21.1% (inactive).
Then `CSc1cccc(NC(=O)CN(C)S(=O)(=O)c2ccc(F)cc2)c1`, with -8.11% (inactive); and `COc1ccccc1NS(=O)(=O)c1cccc(C(=O)NCC2(N(C)C)CCCCC2)c1`, with -8.59% (inactive); and `COc1cc(CCC(=O)OCC(=O)Nc2cc(S(=O)(=O)N3CCOCC3)ccc2Cl)cc(OC)c1OC`, with -2.35% (inactive).
In the case of `O=C(NC(Cc1ccc(O)cc1)C(=O)N=Nc1c(O)[nH]c2ccccc12)c1ccccc1` (stereo not given) it was -6.54% (inactive).
In the case of `COc1ccccc1NC(=O)c1ccc(NC(=O)COC(=O)c2cccnc2Cl)cc1` it was -3.13% (inactive).
For `CCc1ccc(NC(=O)Nc2ccncc2)cc1`, the activity change, negative = cytotoxicity is -3.55% (inactive).
In the case of `CC1(C(=O)Nc2cccc3c2CCCC3)CCN1C(=O)c1cccc(F)c1` (stereo not given) it was -14.8% (inactive); in that of `S=C(NCCc1ccccc1)Nc1ccccn1`, -3.47% (inactive).
Regarding `CCOc1ccc(C(=O)NCC(=O)OCC(=O)N(C)CC(=O)Nc2ccccc2CC)cc1OCC`, the activity change, negative = cytotoxicity is -4.27% (inactive).

The record behind these values is PubChem BioAssay AID624285 (Broad Institute, 2012).
